# Results: patent publication US20230233584A1, “EXTENDED RELEASE 5-HT RECEPTOR AGONISTS FOR NEUROLOGICAL CONDITIONS” (Diamond Therapeutics Inc., priority 2020, published 2023)
# Tested on: Long Evans rats
# Experiment: Progressive ratio (PR) test, Study A
# Assay type: in vivo
# Settings: for food responding: low responder subgroup
# Method: General: Experiments were conducted to test psilocybin doses in the range of 0.01-0.2 mg/kg psilocybin administered S.C. across progressive ratio (PR) and 5-choice serial reaction time task (5CSRTT) to examine the effect of psilocybin on endophenotypes of motivation and attention. In each study, a population of out-bred Long Evans rats was first tested as a group for response to the PR and 5CSRTT. Each group was then divided into subgroups by tertiles according to performance, and then exposed to various dose levels immediately prior to re-testing at various psilocybin dose levels.
# The PR test is used to answer how willing the test subject is to work for food (i.e. test of motivation). A single 45 mg food pellet (i.e. reinforcer) is made available to the test animal based on lever press response. To obtain each successive pellet, the animal must make increasingly more lever presses. Typically, a progression of 2, 4, 6, 9, 12, 15, 20, 25, 32, 40, 50, 62, 77, 95, 118, etc. is used, derived from the equation:
# ratio=[5×e^(0.2×reinforcer #)−5]
# At some point, the animal gives up as the motor demands to obtain a single pellet are not deemed worthwhile (i.e. animal reaches “break point” defined as animal's failure to earn a food pellet in 20 minutes).
# Study A: Psilocybin was administered to rats S.C. at doses of 0.05, 0.1 and 0.2 mg/kg.
# Rats were then sub-grouped into tertiles based on the number of lever presses for food at baseline, so that within the test population of 36 animals, 12 animals were identified as low responders, characterized by low motivation and potentially corresponding to low motivation endophenotype representative of clinical depression. Twelve animals were identified as high responders. There was a statistically significant difference between the high and low responders. […] This represents a motivational enhancing effect of psilocybin at the 0.05 mg/kg dose in the cohort corresponding to a low motivation endophenotype representative of clinical depression.
structure (smiles),measurement,setting,value
"CN(C)CCc1c[nH]c2cccc(OP(=O)(O)O)c12 [psilocybin, 4-phosphoryloxy-N,N-dimethyltryptamine]",food responding,0.05 mg/kg,increase in food responding
same,number of lever presses and break point,"0.05 mg/kg, low responders, P<0.05 vs. vehicle",significant increase
same,session duration,"0.05 mg/kg, low responders, P=0.07 vs. vehicle",10.8 ± 1.9 min
same,food responding,0.1 mg/kg,did not produce an increase in food responding
same,number of lever presses or break points,"0.05, 0.1 and 0.2 mg/kg S.C., entire study population of 36 rats",None of these doses were observed to cause obvious changes
same,response in PR test,"0.05-0.2 mg/kg S.C., high responder subgroup",no effect on response
